pEC50: −log10 of the molar value. Active and inactive are the calls of the source. The rule behind the calls is not given here.
Legend:
[1] = tested on: MCF7; assay: Cytotoxicity against human MCF7 cells; format: functional, cell-based
[2] = tested on: WiDr; assay: Cytotoxicity against human WiDr cells; format: functional, cell-based
[3] = tested on: HEp-2; assay: Cytotoxicity against human Hep2 cells; format: functional, cell-based
[4] = tested on: Daoy; assay: Cytotoxicity against human DaOY cells; format: functional, cell-based
[5] = tested on: CCRF-CEM; assay: Cytotoxicity against human CCRF-CEM cells; format: functional, cell-based
[6] = tested on: DLD-1; assay: Cytotoxicity against human DLD1 cells; format: functional, cell-based
[7] = tested on: HL-60; assay: Cytotoxicity against human HL60 cells; format: functional, cell-based
[8] = tested on: P388D1; assay: Cytotoxicity against […] cells; format: functional, cell-based; settings: Mus musculus
[9] = tested on: SH-SY5Y; assay: Neuroprotective activity against 1 hr compound pretreated human SH-SY5Y cells assessed as reduction in 6-OHDA induced damage at 10 '-4 to 10 uM by MTT assay; format: functional; design: scale not given: the % may be the effect or the level left
[10] = tested on: RAW264.7; assay: Antiinflammatory activity in mouse RAW264.7 cells assessed as inhibition of LPS-induced up-regulation of pro-inflammatory protein iNOS by Western blot analysis; format: functional
[11] = tested on: RAW264.7; assay: Antiinflammatory activity in mouse RAW264.7 cells assessed as inhibition of LPS-induced up-regulation of pro-inflammatory protein COX-2 by Western blot analysis; format: functional
[12] = tested on: SH-SY5Y; assay: Neuroprotective activity against 1 hr compound pretreated human SH-SY5Y cells assessed as reduction in 6-OHDA induced damage at 10^-4 uM by MTT assay; format: functional; design: scale not given: the % may be the effect or the level left
[13] = tested on: SH-SY5Y; assay: Neuroprotective activity against 1 hr compound pretreated human SH-SY5Y cells assessed as reduction in 6-OHDA induced damage at 10^-3 uM by MTT assay; format: functional; design: scale not given: the % may be the effect or the level left
[14] = tested on: SH-SY5Y; assay: Neuroprotective activity against 1 hr compound pretreated human SH-SY5Y cells assessed as reduction in 6-OHDA induced damage at 10^-2 uM by MTT assay; format: functional; design: scale not given: the % may be the effect or the level left
[15] = tested on: SH-SY5Y; assay: Neuroprotective activity against 1 hr compound pretreated human SH-SY5Y cells assessed as reduction in 6-OHDA induced damage at 10^-1 uM by MTT assay; format: functional; design: scale not given: the % may be the effect or the level left
[16] = tested on: SH-SY5Y; assay: Neuroprotective activity against 1 hr compound pretreated human SH-SY5Y cells assessed as reduction in 6-OHDA induced damage at 1 uM by MTT assay; format: functional; design: scale not given: the % may be the effect or the level left
[17] = tested on: SH-SY5Y; assay: Neuroprotective activity against 1 hr compound pretreated human SH-SY5Y cells assessed as reduction in 6-OHDA induced damage at 10 uM by MTT assay; format: functional; design: scale not given: the % may be the effect or the level left
[18] = read-out: ED50 (the source's name)

pEC50 [10, 18]	pEC50 [11, 18]	Structure (SMILES)	Activity [1]	Activity [2]	Activity [3]	Activity [4]	Activity [5]	Activity [6]	Activity [7]	Activity [8]	Activity [9]	Activity [10]	Activity [11]	Activity [12]	Activity [13]	Activity [14]	Activity [15]	Activity [16]	Activity [17]
		CO[C@H]1O[C@@]23C=CC[C@H](C)[C@@]2(C)[C@@H](C(=O)CC3)[C@@H]1C [FLAVALIN C]	inactive	inactive	inactive	inactive	inactive	inactive	inactive	inactive	<20%								
		CO[C@@H]1O[C@@]23C=CC[C@H](C)[C@@]2(C)[C@@H](C(=O)CC3)[C@@H]1C [FLAVALIN D]	inactive	inactive	inactive	inactive	inactive	inactive	inactive	inactive	<20%								
4.69	4.58	C[C@@H]1[C@@H]2O[C@H]3CC[C@@]4(C=CC[C@H](C)[C@@]4(C)[C@H]13)O2 [FLAVALIN A]	inactive	inactive	inactive	inactive	inactive	inactive	inactive	inactive		Dose-dependent effect	Dose-dependent effect	16.9%	5.84%	30.8%	25.3%	35.1%	20.9%
		C[C@@H]1[C@@H](O)O[C@@]23C=CC[C@H](C)[C@@]2(C)[C@H]1C(=O)CC3 [FLAVALIN B]	inactive	inactive	inactive	inactive	inactive	inactive	inactive	inactive				29.6%	32.6%	30.2%	24.3%	21.3%	30.1%

— ChEMBL document CHEMBL1687855, “Nardosinane sesquiterpenoids from the Formosan soft coral Lemnalia flava” (2011)
